Eleven molecules from ChEMBL document CHEMBL1129362 (J Med Chem, 1996) can be followed below.

Assay [1] deals with Cholecystokinin receptor (Homo sapiens) (UniProt P32239+P32238). Description: Selectivity ratio between IC50 values of CCK-A and CCK-B. Format: protein assay.
For assay [2], the species on record is Cavia porcellus. In words: Compound was tested for agonist activity of isolated guinea pig gallbladder by using functional assay. Particulars: read-out: ED50 (the source's name).
The species entered for assay [3] is Cavia porcellus. In words: Relative efficacy determined as maximal contraction was observed at 30 uM standardized to CCK-8. It is filed as functional.
The target of assay [4] is T1, Cholecystokinin receptor type A (Homo sapiens, UniProt P32238).
T1 sequence (P32238 whole entry): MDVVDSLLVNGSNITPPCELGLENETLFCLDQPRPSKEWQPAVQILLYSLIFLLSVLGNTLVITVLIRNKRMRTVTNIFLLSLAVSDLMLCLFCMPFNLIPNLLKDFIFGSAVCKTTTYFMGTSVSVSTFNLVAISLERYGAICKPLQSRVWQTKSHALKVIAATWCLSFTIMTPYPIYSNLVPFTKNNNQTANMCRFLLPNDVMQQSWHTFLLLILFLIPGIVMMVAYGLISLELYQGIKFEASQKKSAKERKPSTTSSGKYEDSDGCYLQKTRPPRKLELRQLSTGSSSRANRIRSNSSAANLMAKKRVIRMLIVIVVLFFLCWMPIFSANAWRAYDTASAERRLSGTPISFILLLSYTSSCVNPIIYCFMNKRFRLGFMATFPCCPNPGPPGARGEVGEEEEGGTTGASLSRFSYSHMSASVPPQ
In words: Binding affinity against human Cholecystokinin type A receptor by displacement of [125I]CCK-8. Background: Displacement assays read how much labelled ligand stays bound in the presence of the test substance.

Assay [5] has as its target T2, Gastrin/cholecystokinin type B receptor (Homo sapiens, UniProt P32239).
T2 sequence (P32239 whole entry): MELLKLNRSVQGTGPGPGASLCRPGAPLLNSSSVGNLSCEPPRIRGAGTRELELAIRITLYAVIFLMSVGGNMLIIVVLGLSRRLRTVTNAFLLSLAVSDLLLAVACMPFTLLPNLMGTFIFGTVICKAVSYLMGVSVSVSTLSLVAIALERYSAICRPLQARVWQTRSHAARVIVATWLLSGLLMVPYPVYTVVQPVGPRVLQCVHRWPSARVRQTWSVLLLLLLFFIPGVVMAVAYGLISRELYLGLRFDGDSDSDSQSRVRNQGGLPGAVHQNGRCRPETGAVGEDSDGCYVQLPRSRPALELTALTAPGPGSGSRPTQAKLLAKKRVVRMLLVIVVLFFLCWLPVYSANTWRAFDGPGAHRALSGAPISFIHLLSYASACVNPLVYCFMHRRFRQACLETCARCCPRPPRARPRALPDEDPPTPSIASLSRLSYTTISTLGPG
In words: Binding affinity against human Cholecystokinin type B receptor by displacement of [125I]CCK-8.

In assay [6] the test system is Mus musculus. In words: Effective dose against mouse gall bladder emptying when administered intraperitoneally. Format: functional. To be noted: ip.
The species entered for assay [7] is Cavia porcellus. Description: Relative efficacy as determined maximal contraction was observed at 30 uM standardized to CCK-8. Format: functional.
Assay [8] relates to Mus musculus. In words: In vivo percent emptying of mouse gallbladder when administered intraperitoneally. Format: functional.
Assay [9] concerns Mus musculus. In words: Effective dose against mouse gall bladder emptying when administered orally. It is filed as functional. To be noted: po.
Assay [10] relates to Mus musculus. Description: In vivo percent emptying of mouse gallbladder when administered orally. It is filed as functional.
Assay [11] has as its system Mus musculus. In words: Effective dose against mouse gallbladder emptying when administered orally. Format: functional.
Assay [12] relates to Mus musculus. Description: Effective dose against mouse gallbladder emptying when administered intraperitoneally. Format: functional.

By IC50 is commonly meant the concentration needed to halve the response being measured. Read a low IC50 as higher potency.

Turning to `CC(C)N(C(=O)CN1C(=O)C(Cc2n[nH]c3ccccc23)C(=O)N(c2ccccc2)c2ccccc21)c1ccccc1` (stereo unspecified), the Selectivity ratio in assay [1] amounted to 2. In addition, the EC50 in [2] is 140 nM. Besides, the Max in [3] is listed as 90%. Moreover, the IC50 in assay [4] was 87.1 nM; in [5], 178 nM.

In the case of `CC(C)N(C(=O)CN1C(=O)C(C)(CC(=O)Nc2ccccc2)C(=O)N(c2ccccc2)c2ccccc21)c1ccccc1` (stereo unspecified), the ED50 in assay [6] came to 0.03 µmol/kg; in [9], 1 µmol/kg. Further, in assay [7], the Max was determined as 80%. Further, the Empty in [8] and in assay [10] was below 70% in each case. Besides, in assay [2], the EC50 was 190 nM.

In the case of `COc1ccc(N(C(=O)CN2C(=O)C(Cc3n[nH]c4ccccc34)C(=O)N(c3ccccc3)c3ccccc32)C(C)C)cc1` (stereo unspecified), the results for the ED50 in [11] and in assay [12] were 8 nM·kg and 0.2 nM·kg, respectively. Moreover, the Selectivity ratio in [1] is 50. The Activity in [8] and in assay [10] was below 90% throughout. Besides, the EC50 in assay [2] was found to be 109 nM. Further, in assay [3], the Max is listed as 100%.

In the case of `CC(C)N(C(=O)CN1C(=O)C(C)(Cc2n[nH]c3ccccc23)C(=O)N(c2ccccc2)c2ccccc21)c1ccccc1` (stereo unspecified), the Selectivity ratio in assay [1] worked out at 20. Moreover, the EC50 in [2] was 20 nM. The same molecule came in with a Max in assay [3] of 80%. For the same molecule, the IC50 in assay [4] was 120 nM; in assay [5], 2630 nM.

With `COc1ccc(N(C(=O)CN2C(=O)C(C)(Cc3c[nH]c4ccccc34)C(=O)N(c3ccccc3)c3ccccc32)C(C)C)cc1` (stereo unspecified), the Selectivity ratio in assay [1] turned out to be 2090. Besides, in assay [2], the EC50 was 530 nM. For the same molecule, in assay [3], the Max came out at 60%. Moreover, the IC50 in assay [5] is 17400 nM.

In the case of `COc1ccc(N(C(=O)CN2C(=O)C(Cc3nn(Cc4ccccc4)c4ccccc34)C(=O)N(c3ccccc3)c3ccccc32)C(C)C)cc1` (stereo unspecified), the Max in [7] is reported as 40%. Also, in assay [2], the EC50 worked out at 340 nM. Also, the results for the IC50 in assay [4] and in assay [5] were 309 nM and 100000 nM, respectively.

The molecule `CSCC[C@H](NC(=O)[C@H](Cc1ccc(OS(=O)(=O)O)cc1)NC(=O)[C@@H](N)CC(=O)O)C(=O)NCC(=O)N[C@@H](Cc1c[nH]c2ccccc12)C(=O)N[C@@H](CCSC)C(=O)N[C@@H](CC(=O)O)C(=O)N[C@@H](Cc1ccccc1)C(N)=O` [SINCALIDE] showed an ED50 in assay [6] of 3e-05 µmol/kg. This molecule also yielded a Max in assay [7] of 100%. The Empty in [8] was below 95%. For the same molecule, the EC50 in [2] stood at 2 nM.

Take `COc1ccc(N(C(=O)CN2C(=O)C(C)(Cc3n[nH]c4ccccc34)C(=O)N(c3ccccc3)c3ccccc32)C(C)C)cc1` (stereo unspecified): in assay [1], the Selectivity ratio is 5100. In addition, in assay [2], the EC50 came to 320 nM. This molecule gave a Max in [3] of 80%. The IC50 in assay [5] is 69200 nM.

Regarding `CC(C)N(C(=O)CN1C(=O)C(C)(Cc2c[nH]c3ccccc23)C(=O)N(c2ccccc2)c2ccccc21)c1ccccc1` (stereo unspecified), the EC50 in assay [2] was 470 nM. Also, the Max in assay [3] is 80%. The IC50 in assay [4] was 107 nM.

Consider `COc1ccc(N(C(=O)CN2C(=O)C(Cc3c[nH]c4ccccc34)C(=O)N(c3ccccc3)c3ccccc32)C(C)C)cc1` (stereo unspecified), for which, in assay [1], the Selectivity ratio came to 480. Further, in assay [2], the EC50 came out at 340 nM. This molecule also showed a Max in [3] of 70%. In assay [5], this molecule had an IC50 of 5250 nM.

`COc1ccc(N(C(=O)CN2C(=O)C(Cc3nn(C)c4ccccc34)C(=O)N(c3ccccc3)c3ccccc32)C(C)C)cc1` (stereo unspecified): the Selectivity ratio in assay [1] was 60. For the same molecule, in assay [2], the EC50 came out at 70 nM. Further, in [3], the Max was determined as 90%. Besides, the IC50 in [4] was 42.7 nM; in [5], 2400 nM.
